# Measurements from patent US4072574A, “System for in vitro assay for mutagenicity and/or carcinogenicity of chemicals or other exogenous agents” (priority 1976, dated 1978).
# Experiments:
# [1] = known status of the compound; cited from earlier work
# [2] = test system: AMV DNA polymerase; test: Fidelity of in vitro DNA synthesis (error frequency) with AMV DNA polymerase copying synthetic polynucleotide templates
# Description: In this invention, the ability of carcinogens to decrease the fidelity of in vitro DNA synthesis will be used to screen for carcinogenic or mutagenic agents. The system uses synthetic polynucleotides of defined composition which may be copied in the test tubes with procaryotic, eucaryotic or viral DNA polymerases. The use of synthetic polynucleotides of defined composition allows the measurement of the simultaneous incorporation of the correct, complementary nucleotide and an incorrect, non-complementary nucleotide. The correct nucleotide is labeled with [α-^32 P] of low specific activity and the incorrect nucleotide is labeled with [^3 H] of high specific activity. Through this double labeled reaction it is possible to determine the simultaneous incorporation of both nucleotides and thus to determine an error frequency. The error frequency may be defined as the ratio of the incorrect/correct nucleotide incorporation. Agents which increase this error frequency may be scored as positive. […] Agents which score positive would be checked using different templates to underscore the positive results. In this system different polymerases will be used as well as different templates. One would expect that most carcinogens would change the fidelity of DNA synthesis with different polymerases as well as with different templates though this need not be the case.
# Each assay will consist of a polymerase, a polynucleotide template that only contains one or two nucleotides, a complementary nucleotide and a non-complementary nucleotide as well as magnesium. Both of the nucleotides will be labeled by radioactive precursors and the ratio between the two is to be used for a measure of error frequency in the system. In instances where a template requires two complementary nucleotides, only one will be radioactively labeled.
# Reactions (total volume 0.05 ml) which measured complementary nucleotide incorporation contained 50 mM Tris-HCL (pH 8.0), 20 mM KCl, 5 mM dithiothreitol, 5 mM MgCl2, 2μg BSA, […] [α-^32 P] -dTTP (60 dpm/pmole), 1μg poly (A).oligo (dT) (1:1.5 mass ratio), and 0.45 μg of AMV DNA polymerase. For simultaneous quantitation of complementary and non-complementary nucleotide incorporation each reaction was modified to contain 26μM [α-^32 P]dTTP (12 dpm/pmole) and 23μM [^3 H]-dCTP (50,000 dpm/pmole). […] Metals were added directly to the reaction mixture as aqueous solutions of chloride salts. All reactions were incubated for 60 min. at 37° C. Incorporation of radioactive nucleotides into an acid-insoluble and alkali-resistant product was determined by using the precipitation-solubilization procedure as described by Battula and Loeb. All experiments were performed in triplicate and the averages were determined.
# In order to determine the effect of different metals on the accuracy of DNA replication, metal cations were added as chloride salts directly to the polymerase reaction. In these experiments, poly (A).oligo (dT) was the template-primer and the simultaneous incorporation of complementary nucleotide, [α-^32 P]-dTMP, and the non-complementery nucleotide, [^3 H]-dCMP, was determined.
# The effect of metal salts on the fidelity of DNA synthesis was examined by testing each of the metal salts at a minimum of seven different concentrations.
# [3] = Table 1, template poly [d(A-T)], classes 1-3 not defined
# [4] = Table 1, template poly (C).oligo (dG), classes 1-3 not defined
# [5] = 0.8 mM Ca(C2 H3 O2)2, template in drawing 3
# [6] = 2.4 mM Ca(C2 H3 O2)2, template in drawing 3
# [7] = 4.0 mM Ca(C2 H3 O2)2, template in drawing 3
# [8] = 4.8 mM Ca(C2 H3 O2)2, template in drawing 3
# [9] = 0.08 mM CrCl2, template in drawing 1
# [10] = 0.16 mM CrCl2, template in drawing 1
# [11] = 0.24 mM CrCl2, template in drawing 1
# [12] = 0.64 mM CrCl2, template in drawing 1
# [13] = 0.02 mM CuCl2, template in drawing 2
# [14] = 0.04 mM CuCl2, template in drawing 2
# [15] = 0.08 mM CuCl2, template in drawing 2
# [16] = 0.12 mM CuCl2, template in drawing 2
# [17] = 8 mM K2 HPO4, template in drawing 4
# [18] = 16 mM K2 HPO4, template in drawing 4
# [19] = 32 mM K2 HPO4, template in drawing 4
# [20] = 40 mM K2 HPO4, template in drawing 4
# [21] = 4 mM KC2 H3 O2, template in drawing 5
# [22] = 20 mM KC2 H3 O2, template in drawing 5
# [23] = 40 mM KC2 H3 O2, template in drawing 5
# [24] = 80 mM KC2 H3 O2, template in drawing 5
# [25] = 4 mM MgSO4, template in drawing 6
# [26] = 6 mM MgSO4, template in drawing 6
# [27] = 8 mM MgSO4, template in drawing 6
# [28] = 10 mM MgSO4, template in drawing 6
smiles,measurement,setting,value
O=S(=O)([O-])[O-].O=S(=O)([O-])[O-].O=S(=O)([O-])[O-].[Al+3].[Al+3] [(Al)2 (SO4)3],Carcinogen or Mutagen,[1],-
same,Class,[2]; [3],2
same,Metal Concentration which yielded the largest observed change in error rate,[2]; template poly [d(A-T)],10 mM
N.N.O=S(=O)(O)O [(NH4)2 SO4],Carcinogen or Mutagen,[1],-
same,Class,[2]; [4],2
same,Metal Concentration which yielded the largest observed change in error rate,[2]; template poly (C).oligo (dG),120 mM
O=[N+]([O-])[O-].[Ag+] [AgNO3],Carcinogen or Mutagen,[1],+
same,Class,[2]; [3],1
same,Metal Concentration which yielded the largest observed change in error rate,[2]; template poly [d(A-T)],0.03 mM
CC(=O)O [Ca(C2 H3 O2)2],Complementary Deoxynucleotide Incorporation,[2]; [5],217 pmol
same,Error Frequency,[2]; [5],1/986
same,Non-complementary Deoxynucleotide Incorporation,[2]; [5],0.22 pmol
same,Complementary Deoxynucleotide Incorporation,[2]; [6],78 pmol
same,Error Frequency,[2]; [6],1/975
same,Non-complementary Deoxynucleotide Incorporation,[2]; [6],0.08 pmol
same,Complementary Deoxynucleotide Incorporation,[2]; [7],39 pmol
same,Error Frequency,[2]; [7],1/975
same,Non-complementary Deoxynucleotide Incorporation,[2]; [7],0.04 pmol
same,Complementary Deoxynucleotide Incorporation,[2]; [8],17 pmol
same,Error Frequency,[2]; [8],1/850
same,Non-complementary Deoxynucleotide Incorporation,[2]; [8],0.02 pmol
same,Class,"[2]; Table 2, classes not defined",2
CC(=O)[O-].CC(=O)[O-].[Cd+2] [Cd(C2 H3 O2)2],Carcinogen or Mutagen,[1],+
same,Class,[2]; [4],1
same,Metal Concentration which yielded the largest observed change in error rate,[2]; template poly (C).oligo (dG),0.24 mM
[Cl][Cd][Cl] [CdCl2],Carcinogen or Mutagen,[1],+
same,Class,[2]; [4],1
same,Metal Concentration which yielded the largest observed change in error rate,[2]; template poly (C).oligo (dG),0.04 mM
[Cl][Cr][Cl] [CrCl2],Carcinogen or Mutagen,[1],+
same,Complementary Deoxynucleotide Incorporation,[2]; [9],133 pmol
same,Error Frequency,[2]; [9],1/578
same,Non-complementary Deoxynucleotide Incorporation,[2]; [9],0.23 pmol
same,Complementary Deoxynucleotide Incorporation,[2]; [10],169 pmol
same,Error Frequency,[2]; [10],1/528
same,Non-complementary Deoxynucleotide Incorporation,[2]; [10],0.32 pmol
same,Complementary Deoxynucleotide Incorporation,[2]; [11],127 pmol
same,Error Frequency,[2]; [11],1/363
same,Non-complementary Deoxynucleotide Incorporation,[2]; [11],0.35 pmol
same,Complementary Deoxynucleotide Incorporation,[2]; [12],71 pmol
same,Error Frequency,[2]; [12],1/192
same,Non-complementary Deoxynucleotide Incorporation,[2]; [12],0.37 pmol
same,Class,[2]; [3],1
same,Metal Concentration which yielded the largest observed change in error rate,[2]; template poly [d(A-T)],0.64 mM
[O]=[Cr](=[O])=[O] [CrO3],Carcinogen or Mutagen,[1],+
same,Class,[2]; [3],1
same,Metal Concentration which yielded the largest observed change in error rate,[2]; template poly [d(A-T)],16 mM
CC(=O)[O-].CC(=O)[O-].[Cu+2] [Cu(C2 H3 O2)2],Carcinogen or Mutagen,[1],±
same,Class,[2]; [4],1
same,Metal Concentration which yielded the largest observed change in error rate,[2]; template poly (C).oligo (dG),0.12 mM
[Cl][Cu][Cl] [CuCl2],Carcinogen or Mutagen,[1],±
same,Complementary Deoxynucleotide Incorporation,[2]; [13],385 pmol
same,Error Frequency,[2]; [13],1/875
same,Non-complementary Deoxynucleotide Incorporation,[2]; [13],0.44 pmol
same,Complementary Deoxynucleotide Incorporation,[2]; [14],130 pmol
same,Error Frequency,[2]; [14],1/722
same,Non-complementary Deoxynucleotide Incorporation,[2]; [14],0.18 pmol
same,Complementary Deoxynucleotide Incorporation,[2]; [15],54 pmol
same,Error Frequency,[2]; [15],1/540
same,Non-complementary Deoxynucleotide Incorporation,[2]; [15],0.10 pmol
same,Complementary Deoxynucleotide Incorporation,[2]; [16],36 pmol
same,Error Frequency,[2]; [16],1/450
same,Non-complementary Deoxynucleotide Incorporation,[2]; [16],0.08 pmol
same,Class,[2]; [4],1
same,Metal Concentration which yielded the largest observed change in error rate,[2]; template poly (C).oligo (dG),0.08 mM
[Cl][Fe][Cl] [FeCl2],Carcinogen or Mutagen,[1],±
same,Class,[2]; [4],2
same,Metal Concentration which yielded the largest observed change in error rate,[2]; template poly (C).oligo (dG),4 mM
O=P([O-])([O-])O.[K+].[K+] [K2 HPO4],Carcinogen or Mutagen,[1],-
same,Complementary Deoxynucleotide Incorporation,[2]; [17],179 pmol
same,Error Frequency,[2]; [17],1/814
same,Non-complementary Deoxynucleotide Incorporation,[2]; [17],0.22 pmol
same,Complementary Deoxynucleotide Incorporation,[2]; [18],180 pmol
same,Error Frequency,[2]; [18],1/783
same,Non-complementary Deoxynucleotide Incorporation,[2]; [18],0.23 pmol
same,Complementary Deoxynucleotide Incorporation,[2]; [19],107 pmol
same,Error Frequency,[2]; [19],1/823
same,Non-complementary Deoxynucleotide Incorporation,[2]; [19],0.13 pmol
same,Complementary Deoxynucleotide Incorporation,[2]; [20],48 pmol
same,Error Frequency,[2]; [20],1/960
same,Non-complementary Deoxynucleotide Incorporation,[2]; [20],0.05 pmol
same,Class,[2]; [3],2
same,Class,"[2]; Table 2, classes not defined",2
same,Metal Concentration which yielded the largest observed change in error rate,[2]; template poly [d(A-T)],40 mM
CC(=O)[O-].[K+] [KC2 H2 O2],Carcinogen or Mutagen,[1],-
same,Complementary Deoxynucleotide Incorporation,[2]; [21],484 pmol
same,Error Frequency,[2]; [21],1/733
same,Non-complementary Deoxynucleotide Incorporation,[2]; [21],0.66 pmol
same,Complementary Deoxynucleotide Incorporation,[2]; [22],423 pmol
same,Error Frequency,[2]; [22],1/755
same,Non-complementary Deoxynucleotide Incorporation,[2]; [22],0.56 pmol
same,Complementary Deoxynucleotide Incorporation,[2]; [23],378 pmol
same,Error Frequency,[2]; [23],1/741
same,Non-complementary Deoxynucleotide Incorporation,[2]; [23],0.51 pmol
same,Complementary Deoxynucleotide Incorporation,[2]; [24],379 pmol
same,Error Frequency,[2]; [24],1/743
same,Non-complementary Deoxynucleotide Incorporation,[2]; [24],0.51 pmol
same,Class,[2]; [4],3
same,Class,"[2]; Table 2, classes not defined",3
same,Metal Concentration which yielded the largest observed change in error rate,[2]; template poly (C).oligo (dG),100 mM
"[Cl-].[K+] [KCl, potassium chloride]",Carcinogen or Mutagen,[1],-
same,effect on the fidelity of DNA synthesis (in words),"[2]; 1 mM to 300 mM, poly (A).oligo (dT)",did not alter the fidelity of DNA synthesis
same,Class,[2]; [3],2
same,Metal Concentration which yielded the largest observed change in error rate,[2]; template poly [d(A-T)],150 mM
O=P([O-])(O)O.[K+] [KH2 PO4],Carcinogen or Mutagen,[1],-
same,Class,[2]; [3],2
same,Metal Concentration which yielded the largest observed change in error rate,[2]; template poly [d(A-T)],80 mM
O=S(=O)([O-])[O-].[Mg+2] [MgSO4],Carcinogen or Mutagen,[1],-
same,Complementary Deoxynucleotide Incorporation,[2]; [25],299 pmol
same,Error Frequency,[2]; [25],1/598
same,Non-complementary Deoxynucleotide Incorporation,[2]; [25],0.50 pmol
same,Complementary Deoxynucleotide Incorporation,[2]; [26],398 pmol
same,Error Frequency,[2]; [26],1/632
same,Non-complementary Deoxynucleotide Incorporation,[2]; [26],0.63 pmol
same,Complementary Deoxynucleotide Incorporation,[2]; [27],349 pmol
same,Error Frequency,[2]; [27],1/635
same,Non-complementary Deoxynucleotide Incorporation,[2]; [27],0.55 pmol
same,Complementary Deoxynucleotide Incorporation,[2]; [28],360 pmol
same,Error Frequency,[2]; [28],1/621
same,Non-complementary Deoxynucleotide Incorporation,[2]; [28],0.58 pmol
same,Class,[2]; [4],3
same,Class,"[2]; Table 2, classes not defined",3
same,Metal Concentration which yielded the largest observed change in error rate,[2]; template poly (C).oligo (dG),10 mM
[Cl][Mn][Cl] [MnCl2],Class,[2]; [4],1
same,Metal Concentration which yielded the largest observed change in error rate,[2]; template poly (C).oligo (dG),10 mM
same,effect on the fidelity of DNA synthesis (in words),[2]; various templates,alter the fidelity
[Cl-].[Na+] [NaCl],Class,[2]; [3],2
same,Metal Concentration which yielded the largest observed change in error rate,[2]; template poly [d(A-T)],120 mM
[Na+].[OH-] [NaOH],Carcinogen or Mutagen,[1],-
same,Class,[2]; [3],3
same,Metal Concentration which yielded the largest observed change in error rate,[2]; template poly [d(A-T)],10 mM
[Cl][Pb][Cl] [PbCl2],Carcinogen or Mutagen,[1],+
same,Class,[2]; [4],1
same,Metal Concentration which yielded the largest observed change in error rate,[2]; template poly (C).oligo (dG),4 mM
[Cl-].[Rb+] [RbCl2],Carcinogen or Mutagen,[1],-
same,Class,[2]; [3],2
same,Metal Concentration which yielded the largest observed change in error rate,[2]; template poly [d(A-T)],20 mM
Cn1c(=O)c2c(ncn2C)n(C)c1=O [caffeine],effect on the fidelity of DNA synthesis (in words),"[2]; 0.1-20 mM, poly (A).oligo (dT)",did not alter the fidelity of DNA synthesis
CC1=C(/C=C/C(C)=C/C=C/C(C)=C/CO)C(C)(C)CCC1 [retinol],effect on the fidelity of DNA synthesis (in words),"[2]; 0.2-2μg, poly (A).oligo (dT)",did not alter the fidelity of DNA synthesis
NCCCCNCCCN [spermidine],effect on the fidelity of DNA synthesis (in words),"[2]; 0.1 to 5 mM, poly (A).oligo (dT)",did not alter the fidelity of DNA synthesis
